For four compounds, inhibition, IC50 and Activity results are on record in ChEMBL document CHEMBL5385886, “Design, synthesis and evaluation of nitric oxide releasing derivatives of 2,4-diaminopyrimidine as novel FAK inhibitors for intervention of metastatic triple-negative breast cancer” (Eur J Med Chem, 2023).

Activity calls are given as the source filed them. No cut-off for these calls is given here. Some results are limits rather than exact numbers.

As a reminder, the inhibition is how much of the control response was suppressed. One may read the IC50 as the midpoint of a concentration-inhibition curve.

Series [1] deals with MDA-MB-231. The series can be described thus: Antiproliferative activity against human MDA-MB-231 cells assessed as inhibition of cell proliferation at 5 uM incubated for 72 hrs by MTT assay relative to control. Type of series: functional.
Series [2] has as its system MDA-MB-231. The series can be described thus: Antiproliferative activity against human MDA-MB-231 cells assessed as inhibition of cell proliferation incubated for 72 hrs by MTT assay. Type of series: functional, cell-based. To be noted: MDA-MB-231, 72 h. For orientation: Tetrazolium assays rely on reduction of a dye to a coloured formazan, in cell work by metabolically active cells.

The subject of another series is MDA-MB-157. Briefly: Antiproliferative activity against human MDA-MB-157 cells assessed as inhibition of cell proliferation incubated for 72 hrs by MTT assay. Type of series: functional, cell-based. As to conditions: MDA-MB-157, 72 h.
The target of another series is Focal adhesion kinase 1 (Homo sapiens, UniProt Q05397). The series can be described thus: Inhibition of FAK (unknown origin).
Chain of Focal adhesion kinase 1 (Q05397 whole entry): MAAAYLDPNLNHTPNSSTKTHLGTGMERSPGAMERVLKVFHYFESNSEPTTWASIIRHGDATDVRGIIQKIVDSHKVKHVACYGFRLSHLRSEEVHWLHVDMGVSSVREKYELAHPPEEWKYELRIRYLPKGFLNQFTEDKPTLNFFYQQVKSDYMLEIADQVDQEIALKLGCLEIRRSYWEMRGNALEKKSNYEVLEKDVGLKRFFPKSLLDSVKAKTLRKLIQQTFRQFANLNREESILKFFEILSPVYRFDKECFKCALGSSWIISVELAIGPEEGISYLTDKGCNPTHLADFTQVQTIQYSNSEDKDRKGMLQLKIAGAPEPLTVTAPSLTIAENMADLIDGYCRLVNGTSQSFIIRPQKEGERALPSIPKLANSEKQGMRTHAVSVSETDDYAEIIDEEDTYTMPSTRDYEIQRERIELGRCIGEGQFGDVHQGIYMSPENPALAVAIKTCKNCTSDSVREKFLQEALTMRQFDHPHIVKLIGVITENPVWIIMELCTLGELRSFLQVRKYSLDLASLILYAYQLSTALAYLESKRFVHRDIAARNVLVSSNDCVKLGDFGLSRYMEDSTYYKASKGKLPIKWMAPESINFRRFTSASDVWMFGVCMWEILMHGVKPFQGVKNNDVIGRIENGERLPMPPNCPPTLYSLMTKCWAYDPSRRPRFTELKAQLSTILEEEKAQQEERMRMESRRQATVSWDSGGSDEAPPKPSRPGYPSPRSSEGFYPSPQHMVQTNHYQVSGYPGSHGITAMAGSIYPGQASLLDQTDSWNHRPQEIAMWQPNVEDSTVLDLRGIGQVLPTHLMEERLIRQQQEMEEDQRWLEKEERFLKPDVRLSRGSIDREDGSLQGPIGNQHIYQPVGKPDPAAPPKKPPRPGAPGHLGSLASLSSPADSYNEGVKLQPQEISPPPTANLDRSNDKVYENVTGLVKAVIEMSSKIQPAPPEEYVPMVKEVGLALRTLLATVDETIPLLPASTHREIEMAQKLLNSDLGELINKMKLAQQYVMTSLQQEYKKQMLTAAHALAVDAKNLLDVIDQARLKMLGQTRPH
The test system of series [3] is MDA-MB-231. Briefly: Induction of NO production in human MDA-MB-231 cells at 4 uM incubated for 72 hrs by DAF-FM-DA dye based flow cytometry analysis. It counts as functional, cell-based.
Another series concerns MDA-MB-453. Briefly: Antiproliferative activity against human MDA-MB-453 cells assessed as inhibition of cell proliferation incubated for 72 hrs by MTT assay. It counts as functional, cell-based. As to conditions: MDA-MB-453, 72 h.
The subject of series [4] is MDA-MB-231. The series can be described thus: Induction of apoptosis in human MDA-MB-231 cells assessed as dead cells at 4 uM incubated for 72 hrs by Annexin V-FITC/PI staining based flow cytometry analysis (reference value: 0.23%). Type of series: functional. A general note: Flow cytometry measures light scatter and fluorescence of single cells or particles in a stream.

Series [5] concerns MDA-MB-231. The series can be described thus: Induction of apoptosis in human MDA-MB-231 cells assessed as live cells at 4 uM incubated for 72 hrs by Annexin V-FITC/PI staining based flow cytometry analysis (reference value: 97.51%). It counts as functional.
The nature of series [6]: Cytotoxicity against human MCF-10A cells assessed as inhibition of cell proliferation incubated for 72 hrs by MTT assay. It counts as toxicity, cell-based.
Series [7] deals with MDA-MB-231. The series can be described thus: Induction of apoptosis in human MDA-MB-231 cells assessed as late apoptotic cells at 4 uM incubated for 72 hrs by Annexin V-FITC/PI staining based flow cytometry analysis (reference value: 0.11%). Type of series: functional.
Series [8] deals with MDA-MB-231. The series can be described thus: Induction of apoptosis in human MDA-MB-231 cells assessed as early apoptotic cells at 4 uM incubated for 72 hrs by Annexin V-FITC/PI staining based flow cytometry analysis (reference value: 2.16%). It counts as functional.
Series [9] relates to MDA-MB-231. Briefly: Antiproliferative activity against human MDA-MB-231 cells assessed as inhibition of cell proliferation incubated for 72 hrs in presence of 2-(4-((5-chloro-4-((2-(methylcarbamoyl)phenyl)amino)pyrimidin-2-yl)amino)phenyl)acetic acid by MTT assay. It counts as functional, cell-based. As to conditions: MDA-MB-231, 72 h.

In the case of `CNC(=O)c1ccccc1Nc1nc(Nc2ccc(CC(=O)OCC(C)COc3no[n+]([O-])c3S(=O)(=O)c3ccccc3)cc2)ncc1Cl` (configuration not stated), the inhibition at 5 µM in the series on MDA-MB-231 [1] is above 92%. Moreover, the IC50 came to 225 nM in the series with MDA-MB-231 [2], 275 nM with MDA-MB-157, 66 nM against Focal adhesion kinase 1 and 255 nM with MDA-MB-453. The outcome in the series on MDA-MB-231 [3] was Active.

In the case of `CNC(=O)c1ccccc1Nc1nc(Nc2ccc(N3CCOCC3)cc2OC)ncc1Cl`, the Activity with MDA-MB-231 [4] is 0.11%; in the series on MDA-MB-231 [5], 57.79%; with MDA-MB-231 [7] it was 1.31%; in the series on MDA-MB-231 [8], 40.78%. In addition, the figures for the 50% inhibitory concentration (IC50) in the series with MDA-MB-231 [2], in the series on MDA-MB-157 and in the series on MDA-MB-453 were 1170 nM, 912 nM and 1220 nM, respectively. Moreover, the half-maximal inhibitory concentration (IC50) at 72 h in [6] amounted to 6470 nM.

Consider `O=S(=O)(c1ccccc1)c1c(OCCCCCCCCO)no[n+]1[O-]`, for which the concentration for half-maximal inhibition (IC50) was 1500 nM in the series on MDA-MB-231 [2] and 1220 nM in the series with MDA-MB-231 [9].

As for `CNC(=O)c1ccccc1Nc1nc(Nc2ccc(CC(=O)OCCCCCCCOc3no[n+]([O-])c3S(=O)(=O)c3ccccc3)cc2)ncc1Cl`, the inhibition at 5 µM with MDA-MB-231 [1] was above 92%. The IC50 in the series with MDA-MB-231 [2] was 129 nM; in the series with MDA-MB-157, 188 nM; against Focal adhesion kinase 1 it was 31.4 nM; with MDA-MB-453 it was 246 nM. For the same compound, in the series on MDA-MB-231 [3], the result was Active.
